The text below walks through data of US20260347843A1, “NERVOUS SYSTEM DELIVERY ENHANCER” (priority 2022, published 2026).

SMILES strings stand for the structures.

Data set [1] deals with Sod1 mRNA. The experiment in a line: Sod1 mRNA expression level in the hippocampus after intraventricular administration of siRNA. Format: in vivo, mouse. The note with it: coadministered with siRNA (7.0 nmol, 100 μg), 7 days.
The nature of data set [2]: Evaluation of central nervous system toxicity (acute tolerability score). Format: in vivo, mouse. To be noted: intraventricular. The procedure:
(§1) On the ASO described in Table 2, the preparation of the nucleic acid, an in vivo experiment, and the evaluation of the target gene suppression effect were performed by the same methods as in Example 1. In this Example, however, the dose of the nucleic acid agent per mouse was 9.4 nmol (50 μg).
(§2) By the below-described methods, evaluation of central nervous system toxicity and evaluation of motor function were performed on mice after intraventricular administration.
In the evaluation of central nervous system toxicity, the behavior was evaluated, using the scoring system shown in FIG. 6, at 30 minutes, 1 hour, and 2 hours after the intraventricular administration. According to the scoring system shown in FIG. 6, the behaviors classified into five categories were evaluated (Categories 1 to 5 in FIG. 6). Each category comprises two behavior evaluation items. Each behavior evaluation item is rated in five stages from 0 to 4 points (Scores 0 to 4 in FIG. 6). A normal behavior is given 0 point, and higher toxicity is given a higher score. In each category, the higher score in the two behavior evaluation items is adopted as the score for the category. The total value of the scores for the five categories is defined as an acute tolerability score (0 to 20 points).

A short description of data set [3]: ASO concentration in mouse nervous tissue after intraventricular administration (quantitative RT-PCR relative to U6 snRNA). Format: in vivo. The procedure:
Seven-week-old female ICR mice anesthetized with 2.5 to 4% isoflurane were fixed to a brain stereotaxic apparatus. Then, skin between the ears was cut open 2 to 3 cm anteroposteriorly, and perforated 1 mm leftward and 0.2 mm posteriorly from the bregma using a 1 mm diameter drill. A Hamilton syringe was filled with the nucleic acid agent. Through the perforated site, a needle was inserted approximately 3 mm deep. The ASO at a dose of 0.95 nmol (5 μg) per mouse was administered into the left lateral ventricle (n=4 to 7/group). The group to which ASO and TGN-073 were coadministered (hereinafter, the group is referred to as the “ASO/TGN-073 coadministration group”) means that ASO mixed with TGN-073 was administered. The group to which only ASO was administered (hereinafter, the group is referred to as the “ASO single administration group”) means that only ASO was administered without being mixed with TGN-073. The dose of TGN-073 in the ASO/TGN-073 coadministration group was 0.25 mg per mouse. After the intraventricular administration, the skin was sutured with a nylon thread. In addition, mice to which only TGN-073 was administered (hereinafter, the mice are referred to as the “TGN-073 administration group”) and mice to which only PBS was administered (hereinafter, the mice are referred to as the “PBS administration group”) were produced as controls.
A left hippocampus was extirpated from each of the mice at 3 hours or 7 days after the intraventricular administration. Using an IsogenI kit (GeneDesign Inc.), RNA was extracted from the left hippocampus extirpated. A cDNA was synthesized using Transcriptor Universal cDNA Master, DNase (Roche Diagnostics) in accordance with the protocol.
The intracerebral ASO concentration (the amount of the nucleic acid delivered to the brain) was measured by extracting RNA from the left hippocampus extirpated in the same manner as described above, and performing quantitative RT-PCR using a primer pair for amplifying ASO and TaqMan Small RNA Assay (Roche Applied Science). The intracerebral ASO concentration was obtained by calculating the ASO content relative to U6 snRNA (an internal standard gene). […]

Data set [4] concerns Aquaporin-4. The note with it: as disclosed in WO2017/150704 and Huber V. J. et al., NeuroReport, 2018; cited from earlier work.
Data set [5] in a line: VHH antibody concentration in brain tissue after intraventricular administration (Alexa 647 fluorescence). The data set is classed as in vivo. To be noted: coadministered with VHH antibody (29 μmol/mouse), TGN-073 250 μg/mouse, left hippocampus, left occipital cortex, left basal ganglia, 3 hours. The procedure:
In this Example, a fluorescence-labeled camelized single domain antibody (VHH antibody; Alpaca anti-Rabbit IgG Nano (VHH) Recombinant Secondary Antibody, Alexa Fluor (trademark)647, #SA5-10327, Invitrogen) alone or in combination with TGN-073 (250 μg/mouse) was intraventricularly administered at a dose of […] to an 8-week-old ICR mouse (female). Hereinafter, the mice to which the VHH antibody alone was intraventricularly administered are referred to as the “VHH antibody single administration group”, and the mice to which the VHH antibody and TGN-073 were intraventricularly administered together are referred to as the “VHH antibody/TGN-073 coadministration group”. Brain tissue samples of the left hippocampus, left occipital cortex, and left basal ganglia were collected from the mice at 3 hours after the intraventricular administration. Using a fluorescence plate reader (M1000Pro, Tecan Group Ltd.), the Alexa 647 fluorescence intensity per brain weight was measured to thereby evaluate the concentration of the VHH antibody in each brain tissue.

The nature of data set [6]: Evaluation of motor function in an open-field test. The data set is classed as in vivo, mouse. The note with it: coadministered with Mapt-targeting ASO (50 μg); 1 hour after intraventricular administration. The protocol:
as §1, §2
To evaluate the motor function, an open-field test was performed at each point of time after the intraventricular administration. Specifically, a mouse was placed in the center of a cage (50 cm in width×50 cm in […]×40 cm in height), and the track of the mouse was recorded for 5 minutes. On the basis of the data recorded, the total maximum moving speed (m/s) and the moving time(s) were measured using the video tracking software (ANY-maze).

With `O=S(=O)(Nc1ncccc1OCc1ccccc1)c1ccccc1` [TGN-073, N-(3-benzyloxypyridin-2-yl)-benzene-sulfonamide], in data set [1], the “Target gene (Sod1) suppression effect in the brain (hippocampus) vs siRNA single administration” value is “marked augmentation”. Further, the “Central nervous system toxicity” value in data set [2] (TGN-073 single administration, 30 minutes, 1 hour, and 2 hours) was “no toxicity”. Also, the Acute tolerability score in data set [2] (TGN-073 single administration, 30 minutes, 1 hour, and 2 hours, scale 0 to 20 points) worked out at 0. Further, the “Acute tolerability score vs ASO single administration” value in data set [2] (coadministered with Mapt-targeting ASO (50 μg), 30 minutes, 1 hour, 2 hours) is “substantially the same acute tolerability score as the ASO single administration group”. Also, the “Augmentation of neurotoxicity by TGN-073 coadministration” value in data set [2] (coadministered with Mapt-targeting ASO) is “no recognizable augmentation of neurotoxicity at all”. Also, the “ASO concentration in the central nervous system (hippocampus) vs ASO single administration” value in data set [3] (Example 7, coadministered with Mapt-targeting ASO of Table 6 (9.4 nmol, 50 μg), TGN-073-mes 0.125 mg/mouse per method, 7 days) is reported as “marked enhancement”. Also, the “ASO concentration in the central nervous system (hippocampus) vs nucleic acid agent alone” value was “dramatic increase” in data set [3] (coadministered with ASO (single-stranded, 0.95 nmol), 7 days); “dramatic increase” in data set [3] (coadministered with Chol-HDO (0.95 nmol), 7 days); “dramatic increase” in data set [3] (coadministered with HDO (0.95 nmol), 7 days). In addition, in data set [3] (coadministered with Malat1-targeting ASO (0.95 nmol, 5 μg), TGN-073 0.25 mg per mouse, 3 hours or 7 days), the “ASO concentration in the hippocampus (amount of nucleic acid delivered to the brain) vs ASO single administration” value is “dramatic increase”. Further, in data set [3] (coadministered with Malat1-targeting ASO (1.7 nmol, 12.5 μg), 7 days), the “ASO concentration in the lumbar cord portion vs ASO single administration” value is given as “dramatic increase”. Also, the “Promotion of the function of Aquaporin-4” value in data set [4] is listed as “can promote the function of Aquaporin-4”. Further, in data set [5], the “VHH antibody concentration in the central nervous system vs VHH antibody single administration” value is on record as “dramatic increase”. In addition, the “Maximum moving speed in open-field test vs ASO single administration” value in data set [6] was “substantially the same maximum moving speed”. Also, the “Moving time in open-field test vs ASO single administration” value in data set [6] is given as “the same moving time”.
